Patent US7786141B2 (Vertex Pharmaceuticals Incorporated, priority 2004, dated 2010)
Like-named read-outs stand apart in the source and are kept apart here.

Columns and labels:
[1] = biological target: T1, M4 muscarinic receptor (Homo sapiens, UniProt P08173); assay: Functional mobilization of intracellular calcium (FLIPR) in M4-CHO cells; format: cell-based
T1 construct: expressed in transfected cells; host or cells: CHO (M4-CHO)
T1 sequence (P08173 1-479): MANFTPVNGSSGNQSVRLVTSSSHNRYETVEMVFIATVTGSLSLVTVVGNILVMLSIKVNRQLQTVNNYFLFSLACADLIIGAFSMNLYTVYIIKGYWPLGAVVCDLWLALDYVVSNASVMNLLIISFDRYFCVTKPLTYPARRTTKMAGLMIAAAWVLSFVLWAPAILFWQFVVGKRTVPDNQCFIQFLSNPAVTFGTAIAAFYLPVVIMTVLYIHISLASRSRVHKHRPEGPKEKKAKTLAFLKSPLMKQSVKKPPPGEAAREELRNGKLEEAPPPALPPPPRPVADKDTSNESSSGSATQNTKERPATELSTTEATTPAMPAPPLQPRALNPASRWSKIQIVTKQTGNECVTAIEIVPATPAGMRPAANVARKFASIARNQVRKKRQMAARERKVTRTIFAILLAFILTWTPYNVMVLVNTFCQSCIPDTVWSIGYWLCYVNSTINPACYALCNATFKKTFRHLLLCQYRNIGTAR
Outline: (§1)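 CHO cells stably expressing human M1 or M4 receptor were loaded with Fluo-3 AM (or Calcium 3 dye) in Hepes-buffered saline, pH 7.4, with 1 mM probenecid, 0.5% final DMSO. Agonist mode: compound added directly; antagonist mode: 15 min preincubation before carbachol at EC80. FLIPR fluorescence recorded 60 sec.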

[2] = biological target: T2, M1 muscarinic receptor (Homo sapiens, UniProt P11229); assay: Functional mobilization of intracellular calcium (FLIPR) in M1-CHO cells; format: cell-based
T2 construct: expressed in transfected cells; host or cells: CHO (M1-CHO)
T2 sequence (P11229 1-460): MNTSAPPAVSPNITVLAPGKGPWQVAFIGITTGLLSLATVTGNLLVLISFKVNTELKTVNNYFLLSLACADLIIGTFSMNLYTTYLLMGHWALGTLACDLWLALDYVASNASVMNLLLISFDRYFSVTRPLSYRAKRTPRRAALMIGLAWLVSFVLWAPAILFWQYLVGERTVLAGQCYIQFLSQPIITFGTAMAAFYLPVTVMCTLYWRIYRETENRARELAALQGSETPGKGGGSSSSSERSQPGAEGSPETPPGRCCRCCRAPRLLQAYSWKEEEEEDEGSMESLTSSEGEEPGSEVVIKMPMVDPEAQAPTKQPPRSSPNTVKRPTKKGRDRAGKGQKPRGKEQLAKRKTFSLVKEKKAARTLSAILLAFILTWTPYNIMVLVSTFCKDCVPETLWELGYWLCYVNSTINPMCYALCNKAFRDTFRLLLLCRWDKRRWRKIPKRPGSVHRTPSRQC
Outline: as §1

[3] = M4 receptor, calcium mobilization
[4] = M4 receptor, calcium mobilization, read-out: M4 Efficacy
[5] = M1 receptor, calcium mobilization
[6] = M1 receptor, calcium mobilization, read-out: M1 Efficacy
[7] = Table 4, 100% efficacy is the maximum response obtained with the Carbachol control
[8] = Table 4, modulating M4 receptor
[9] = Table 4, modulating M1 receptor
[10] = Table 4, M4 receptor, calcium mobilization (FLIPR)
[11] = Table 4, M1 receptor, calcium mobilization (FLIPR)
[12] = 100% efficacy is the maximum response obtained with the Carbachol control, Table 5

Row | SMILES | M4 Activity [1, 3] | Emax [1, 4] | M1 Activity [2, 5] | Emax [2, 6] | Emax [1, 7] | M4 Activity [1, 8] | Emax [2, 7] | M1 Activity [2, 9] | further results
1 | CCCOC(=O)N1CCC(CN2CCC3(CC2)C[C@H](NC(C)=O)c2ccccc23)CC1 [compound 36] | xx (activity was measured to be between 0.1 μM and 1.0 μM) | > 85% | xxx (activity was measured to be less than 0.1 μM) | 65 to 85% | – | – | – | – | –
2 | CCOC(=O)N1CCC(N2CCC3(CC2)CN(C(=O)CC)c2ccc(F)cc23)CC1 [compound 317] | x (activity was measured to be greater than 1.0 μM) | < 65% | x (activity was measured to be greater than 1.0 μM) | < 65% | – | – | – | – | –
3 | CN(C)C(=O)N1CC2(CCN(C3CCN(c4ccccn4)CC3)CC2)c2cc(F)ccc21 [compound 720] | – | – | – | – | 25 to 100% | xxx (activity was measured to be less than 2.0 μM) | 25 to 100% | xx (activity was measured to be between 2.0 μM and 5.0 μM) | –
4 | CC(=O)N[C@H]1CCC2(CCN(CCC3CCCN(C(=O)OC(C)(C)C)C3)CC2)c2ccccc21 (stereo partly shown) [compound 819] | – | – | – | – | < 25% | – | 25 to 100% | – | M4 Activity [1, 10]: x (activity was measured to be greater than 5.0 μM); M1 Activity [2, 11]: xxx (activity was measured to be less than 2.0 μM)
5 | CN(C)C(=O)N1CC2(CCN(C3CCN(c4ccc(F)cc4)CC3)CC2)c2cc(F)ccc21 [compound 534] | – | – | – | – | < 25% | xxx (activity was measured to be less than 2.0 μM) | 25 to 100% | xx (activity was measured to be between 2.0 μM and 5.0 μM) | –
6 | CCOC(=O)N1CCC(CN2CCC3(CC2)CN(C(C)=O)c2ccc(OC(F)(F)F)cc23)CC1 [compound 21] | x (activity was measured to be greater than 1.0 μM) | < 65% | xx (activity was measured to be between 0.1 μM and 1.0 μM) | < 65% | – | – | – | – | –
7 | C#CCOC(=O)N1CCC(N2CCC3(CC2)CN(C(C)=O)c2ccccc23)CC1 [compound 947] | – | – | – | – | 25 to 100% | – | > 100% | – | M4 Activity [1, 10]: xxx (activity was measured to be less than 2.0 μM); M1 Activity [2, 11]: xxx (activity was measured to be less than 2.0 μM)
8 | CCC(C)(C)C1CCC(N2CCC3(CC2)CN(C(C)=O)c2ccc(F)cc23)CC1 (stereo not shown) [compound 892] | – | – | – | – | < 25% | – | < 25% | – | M4 Activity [1, 10]: x (activity was measured to be greater than 5.0 μM); M1 Activity [2, 11]: x (activity was measured to be greater than 5.0 μM)
9 | CC(=O)N[C@H]1CC2(CCN(Cc3ccoc3)CC2)c2ccccc21 [compound 530] | – | – | – | – | < 25% | x (activity was measured to be greater than 5.0 μM) | < 25% | x (activity was measured to be greater than 5.0 μM) | –
10 | CC(=O)N1CC2(CCN(C3CCN(c4cncc(-c5ccc(F)cc5)n4)CC3)CC2)c2ccccc21 [compound 556] | – | – | – | – | < 25% | x (activity was measured to be greater than 5.0 μM) | 25 to 100% | x (activity was measured to be greater than 5.0 μM) | –
11 | CC(C)C1CCC(N2CCC3(CC2)CC(C(=O)O)c2ccccc23)CC1 (stereo not shown) [compound 919] | – | – | – | – | < 25% | – | < 25% | – | M4 Activity [1, 10]: x (activity was measured to be greater than 5.0 μM); M1 Activity [2, 11]: x (activity was measured to be greater than 5.0 μM)
12 | CC(=O)N1CC2(CCN(C3CCN(c4nccs4)CC3)CC2)c2cc(F)ccc21 [compound 1019] | – | – | – | – | – | – | – | – | Emax [1, 12]: 25 to 100%; EC50 ([1]; CHO cells expressing M4, calcium mobilization, Table 5): < 2000 nM; Emax [2, 12]: 25 to 100%; EC50 ([2]; CHO cells expressing M1, calcium mobilization, Table 5): < 2000 nM
13 | CCOC(=O)N1CCC(N2CCC3(CC2)CN(C(=O)CCOC)c2ccc(F)cc23)CC1 [compound 714] | – | – | – | – | 25 to 100% | xxx (activity was measured to be less than 2.0 μM) | > 100% | xxx (activity was measured to be less than 2.0 μM) | –
14 | CCCOC(=O)N1C2CCC1CC(N1CCC3(CC1)CN(S(C)(=O)=O)c1ccc(F)cc13)C2 (stereo not shown) [compound 294] | xx (activity was measured to be between 0.1 μM and 1.0 μM) | 65 to 85% | xx (activity was measured to be between 0.1 μM and 1.0 μM) | > 85% | – | – | – | – | –
15 | CCOC(=O)N1C2CCC1CC(N1CCC3(CC1)CNc1ccc(C)cc13)C2 (stereo not shown) [compound 109] | xx (activity was measured to be between 0.1 μM and 1.0 μM) | < 65% | xxx (activity was measured to be less than 0.1 μM) | 65 to 85% | – | – | – | – | –
16 | CCOC(=O)N1CCC(N2CCC3(CC2)CN(c2nccs2)c2ccc(F)cc23)CC1 [compound 879] | – | – | – | – | 25 to 100% | – | 25 to 100% | – | M4 Activity [1, 10]: xxx (activity was measured to be less than 2.0 μM); M1 Activity [2, 11]: xxx (activity was measured to be less than 2.0 μM)
17 | CN(C)C(=O)N1CC2(CCN(C3CCN(C(=O)C4COc5ccccc5O4)CC3)CC2)c2cc(F)ccc21 (stereo not shown) [compound 781] | – | – | – | – | < 25% | x (activity was measured to be greater than 5.0 μM) | 25 to 100% | x (activity was measured to be greater than 5.0 μM) | –
18 | O=C(OCC(F)F)N1C2CCC1CC(N1CCC3(CC1)COc1ccc(F)cc13)C2 (stereo not shown) [compound 186] | x (activity was measured to be greater than 1.0 μM) | 65 to 85% | xxx (activity was measured to be less than 0.1 μM) | > 85% | – | – | – | – | –
19 | CCOC(=O)N1C2CCC1CC(N1CCC3(CC(=O)c4cc(F)ccc43)C1)C2 (stereo not shown) [compound 980] | – | – | – | – | 25 to 100% | – | > 100% | – | M4 Activity [1, 10]: xxx (activity was measured to be less than 2.0 μM); M1 Activity [2, 11]: xxx (activity was measured to be less than 2.0 μM)
20 | CC1(C)C(=O)c2ccccc2C12CCN([C@H]1C[C@@H]3CC[C@@H]1C3)CC2 [compound 483] | – | – | – | – | < 25% | x (activity was measured to be greater than 5.0 μM) | < 25% | x (activity was measured to be greater than 5.0 μM) | –
21 | CCCC(=O)N[C@H]1CC2(CCN([C@@H]3CC4CC[C@@H]3C4)CC2)c2ccccc21 [compound 1017] | – | – | – | – | 25 to 100% | – | 25 to 100% | – | M4 Activity [1, 10]: xxx (activity was measured to be less than 2.0 μM); M1 Activity [2, 11]: x (activity was measured to be greater than 5.0 μM)
22 | O=C1CC2(CCN([C@@H]3C[C@@H]4CC[C@@H]3C4)CC2)c2cc(Cl)ccc21 [compound 787] | – | – | – | – | 25 to 100% | xxx (activity was measured to be less than 2.0 μM) | 25 to 100% | xxx (activity was measured to be less than 2.0 μM) | –
23 | CCOC(=O)N1CCC(N2CCC3(CC2)CNc2ccc(Cl)cc23)CC1 [compound 19] | xx (activity was measured to be between 0.1 μM and 1.0 μM) | 65 to 85% | xxx (activity was measured to be less than 0.1 μM) | 65 to 85% | – | – | – | – | –
24 | CC(=O)N1CC2(CCN(C3CCCCC3C)CC2)c2cc(F)ccc21 (stereo not shown) [compound 52] | xxx (activity was measured to be less than 0.1 μM) | 65 to 85% | xxx (activity was measured to be less than 0.1 μM) | > 85% | – | – | – | – | –
25 | Cc1ccc2c(c1)C1(CCN(C3C4CCCC3CCC4)CC1)CN2 (stereo not shown) [compound 72] | xx (activity was measured to be between 0.1 μM and 1.0 μM) | 65 to 85% | xxx (activity was measured to be less than 0.1 μM) | 65 to 85% | – | – | – | – | –
